Experimental data from patent US11045487B2, “Pharmaceutical preparation treating bone lesions caused by malignant neoplasms” (priority 2016, dated 2021).

Legend:
[1] = Thermal behaviour of solutions for lyophilization (DSC); assay type: physicochemical
Excerpt: Differential Scanning calorimetry (DSC) was used to identify the lowest possible transient temperature in the solution throughout the entire lyophilization process, including freezing and dehydration. For the solutions of most pharmaceutical products, this parameter is represented by the glass transition temperature or “Tgt”. All components and their amounts in the solution contribute to the final value of Tgt. This temperature is usually several degrees below the temperature at which the sintered material can crumble during the lyophilization process (collapse temperature, Tc). Without determining the collapse temperature by such methods as cryomicroscopy, the glass transition temperature can be used to select the primary drying temperature. Until the primary drying is completed, the initial drying temperature should be set in such a manner that there are no vials for which the glass transition temperature has been exceeded (or Tc, if known). Otherwise, the structure of the sintered material may get broken. On the one hand, the lyophilization temperature should be close to Tgt, so that the process proceeds efficiently, and on the other hand, it cannot exceed Tgt due to process requirements and qualitative product parameters. Thus, the values of collapse and glass transition temperature are important parameters for calculating safe upper temperature limits, which can be used for lyophilization. Based on the proposed filling of the vials with the drug (100 mg of active ingredient per vial), potential solutions for filling were prepared. The excipients included sterile water for injection (SWFI), 50 mM succinate and tartrate buffers at pH 5, MgCl2, sulfobutylether β-cyclodextrin (SBEβCD), mannitol and dextran 40. In addition, for solutions containing mannitol, a study of the effect of the annealing stage (the lyophilization process stage when the samples are kept at a certain temperature below the freezing point for a certain period of time) on the improvement the crystallinity of the finished product was performed. […]

[2] = system: bone lesions caused by malignant neoplasms; assay: Phase I open non-randomized multicenter clinical study; assay type: in vivo; details: patients; intravenous infusion daily for 5 days, break of 23 days; on free acid basis
Method: To assess the efficacy and safety of the novel medicinal drug, clinical studies of phase I were conducted according to “Open non-randomized multicenter clinical study” protocol.
All patients received a single dosing with the study drug in a dose corresponding to the dose level of the cohort with the subsequent weekly follow-up period and at least 2 cycles of multiple dosing. The cycle consisted of daily administration (o.d.) of the drug for 5 days, followed by a break of 23 days. […] According to protocol criteria, the maximum tolerated dose is considered a dose 1 level lower than DLT (5 mg/kg).

[3] = Succinate buffer, MBC-11 25 mg/mL, MgCl2, 86.5 mmol/L
[4] = Tartrate buffer, MBC-11 25 mg/mL, MgCl2, 86.5 mmol/L

**Q.** For `CC(O)(P(=O)(O)O)P(=O)(O)OP(=O)(O)OC[C@H]1O[C@@H](n2ccc(N)nc2=O)[C@@H](O)[C@@H]1O.[Na].[Na].[Na]` (stereo partly drawn) [MBC-11, Trisodium salt of 1-((((((2R,3S,4S,5R)-5-(4-amino-2-oxopyrimidine-1(2H)-yl)-3,4-dihydroxytetrahydrofuran-2-yl)methoxy))(hydroxy)phosphoryloxy)(hydroxy)phosphoryl)-1-hydroxyethylphosphonic acid], which “Thermal effect (event): endotherm” value ([1]; SWFI, MBC-11 25 mg/mL, MgCl2, 43.25 mmol/L) is on record?
**A.** The value was −21 °C (endotherm).

**Q.** And the “Thermal effect (event): possible crystallization” value ([1]; SWFI, MBC-11 25 mg/mL, MgCl2, 43.25 mmol/L + Mannitol, 25 mg/mL)?
**A.** Its value is −27 °C.

**Q.** And the “Thermal effect (event): specific endothermicity (none crystallization after temperature processing)” value ([1]; SWFI, MBC-11 25 mg/mL, MgCl2, 43.25 mmol/L + Mannitol, 25 mg/mL, Annealing at −20° C.)?
**A.** The value was −22 °C.

**Q.** What about the “Thermal effect (event): weak endothermicity (none crystallization after annealing)” value ([1]; SWFI, MBC-11 25 mg/mL, MgCl2, 43.25 mmol/L + Mannitol, 25 mg/mL, Annealing at −24° C.) of the same molecule?
**A.** Its value is −22 °C.

**Q.** What about the “Thermal effect (event): endothermicity” value ([1]; SWFI, MBC-11 25 mg/mL, MgCl2, 86.5 mmol/L) of the same molecule?
**A.** Its value is −26 °C (endothermicity).

**Q.** What about the “Thermal effect (event)” value ([1]; SWFI, MBC-11 25 mg/mL, MgCl2, 86.5 mmol/L + Mannitol, 25 mg/mL) of the same molecule?
**A.** The value was “Tgt/endothermicity before”.

**Q.** And the “Thermal effect (event): endothermicity” value ([1]; SWFI, MBC-11 50 mg/mL, MgCl2, 86.5 mmol/L)?
**A.** The value was −21 °C (endothermicity).

**Q.** What about the “Thermal effect (event)” value ([1]; SWFI, MBC-11 50 mg/mL, MgCl2, 86.5 mmol/L + Mannitol, 25 mg/mL) of the same molecule?
**A.** Its value is “Tgt/endothermicity before”.

**Q.** What about the “Thermal effect (event): endothermicity” value ([1]; SWFI, MBC-11 50 mg/mL, MgCl2, 173 mmol/L) of the same molecule?
**A.** The value was −26 °C (endothermicity).

**Q.** What about the “Thermal effect (event)” value ([1]; SWFI, MBC-11 50 mg/mL, MgCl2, 173 mmol/L + Mannitol, 25 mg/mL) of the same molecule?
**A.** The value was “Tgt/endothermicity before”.

**Q.** And the “Thermal effect (event): endothermicity” value ([1]; SWFI, MBC-11 100 mg/mL, MgCl2, 173 mmol/L)?
**A.** Its value is −22 °C (endothermicity).

**Q.** What about the “Thermal effect (event): endothermicity” value ([1]; SWFI, MBC-11 100 mg/mL, MgCl2, 350 mmol/L) of the same molecule?
**A.** The value was −26 °C (endothermicity).

**Q.** What about the “Thermal effect (event): crystallization” value [1, 3] of the same molecule?
**A.** Its value is −34 °C (crystallization).

**Q.** What about the “Thermal effect (event): endothermicity” value [1, 3] of the same molecule?
**A.** The value was −26 °C (endothermicity).

**Q.** What about the “Thermal effect (event)” value ([1]; Succinate buffer, MBC-11 25 mg/mL, MgCl2, 86.5 mmol/L + Mannitol, 25 mg/mL) of the same molecule?
**A.** The value was “Tgt/endothermicity before”.

**Q.** And the “Thermal effect (event): crystallization” value [1, 4]?
**A.** Its value is −30 °C (crystallization).

**Q.** What about the “Thermal effect (event): endothermicity” value [1, 4] of the same molecule?
**A.** The value was −22 °C (endothermicity).

**Q.** And the “maximum tolerated daily dose” value [2]?
**A.** The value was 5 mg/kg.
